Each block holds one compound with its values, some of them ahead of it.
How the values were obtained:
[1] = system: HEK 293 cells transfected with wild type desnutrin-HA-GFP; assay: Glycerol release (lipolysis) from oleate loaded HEK 293 cells transfected with wild type desnutrin-HA-GFP; type: cell-based; settings: treated with AICAR vs without
Procedure: (§1) Gonadal fat pads or BAT from overnight fasted mice were cut into 50 mg samples and incubated at 37° C. without shaking in […] of Krebs-Ringer buffer (12 mM HEPES, 121 mM NaCl, 4.9 mM KCl, 1.2 mM MgSO4 and 0.33 mM CaCl2) containing 2% fatty acid free bovine serum albumin (BSA) and 0.1% glucose with or without 10 μM isoproterenol. Fatty acid (FA) and glycerol release were measured in aliquots from incubation buffer using the NEFA C Kit (Wako) and Free Glycerol Reagent (Sigma), respectively. […] Glycerol and fatty acid were determined using the kits described above.
(§2) The role of AMPK in lipolysis is controversial, with several reporting AMPK stimulates lipolysis and others showing it inhibits lipolysis, via phosphorylation of HSL at S563 (Daval et al., 2005; Koh et al., 2007; Lage et al., 2008; Yin et al., 2003). To determine the effect of AMPK specifically on desnutrin-mediated Lipolysis, oleate loaded HEK 293 cells, transfected with wild type desnutrin-HA-GFP, mutant S406A-desnutrin-HA-GFP or GFP control, were treated with the cell-permeable AMPK-activator, 5-amino-4-imidazolecarboxamide riboside (AICAR), and lipolysis was determined by measuring glycerol release. […] To test the effect of AMPK on lipolysis in vivo, AICAR was administered intraperitoneally to flox/flox and desnutrin-ASKO mice and then measured serum FA levels. […]

[2] = system: HEK 293 cells transfected with mutant S406A-desnutrin-HA-GFP; assay: Glycerol release (lipolysis) from oleate loaded HEK 293 cells transfected with mutant S406A-desnutrin-HA-GFP; type: cell-based; settings: treated with AICAR vs without
Procedure: as §1, §2

AMPK = assay: Effect of AMPK activation on lipolysis in vivo: serum FA levels after intraperitoneal AICAR; set-up: species or system mice; settings: five hours after injection
Procedure: Fasting serum triglycerides and FAs were analyzed with Infinity Triglyceride reagent (Thermo Trace) and NEFA C kit (Wako), respectively. Serum insulin, were determined using enzyme-linked immunosorbent assay kits (Alpco).
The role of AMPK in lipolysis is controversial, with several reporting AMPK stimulates lipolysis and others showing it inhibits lipolysis, via phosphorylation of HSL at S563 (Daval et al., 2005; Koh et al., 2007; Lage et al., 2008; Yin et al., 2003). To determine the effect of AMPK specifically on desnutrin-mediated Lipolysis, oleate loaded HEK 293 cells, transfected with wild type desnutrin-HA-GFP, mutant S406A-desnutrin-HA-GFP or GFP control, were treated with the cell-permeable AMPK-activator, 5-amino-4-imidazolecarboxamide riboside (AICAR), and lipolysis was determined by measuring glycerol release. […] To test the effect of AMPK on lipolysis in vivo, AICAR was administered intraperitoneally to flox/flox and desnutrin-ASKO mice and then measured serum FA levels. […] Therefore, AMPK phosphorylates desnutrin to increase lipolysis and promote FA oxidation in adipocytes.
FIGS. 3A-N. Desnutrin ablation converts BAT to WAT, and phosphorylation of desnutrin by AMPK increases lipolysis. […] I) FA oxidation, measured by ^14CO2 production from [U^14C] palmitate, from isolated brown adipocytes (left) and white adipocytes (right) from flox/flox and desnutrin-ASKO mice (n=4). […]

β3 adrenergic receptors = molecular target: T1, β3 adrenergic receptors (Mus musculus, UniProt P25962); assay: Oxygen consumption (VO2) by indirect calorimetry after injection of β3-agonist; type: in vivo, mice; settings: intraperitoneal injection 1 mg/kg body weight
T1 construct: endogenous in cells; host or cells: living flox/flox and desnutrin-ASKO mice (whole animal)
Procedure: Oxygen consumption (VO2) was measured using the Comprehensive Laboratory Animal Monitoring System (CLAMS; Columbus Instruments). Data were normalized to body weights. Body temperatures were assessed in 25 wk-old male mice using a RET-3 rectal probe for mice (Physitemp). […] was intraperitoneally injected into mice at 1 mg/kg body weight.
Oxygen consumption (VO2) was measured using the Comprehensive Laboratory Animal Monitoring System (CLAMS: Columbus Instruments). Data were normalized to body weights. Body temperatures were assessed using a RET-3 rectal probe for mice (Physitemp).
Since lipolysis and FAs are critical for thermogenesis, it was predicted that the severely blunted lipolysis in desnutrin-ASKO mice, would lead to impaired thermogenesis. Desnutrin-ASKO mice and flox/flox littermates were subjected to cold stress. […] To test this, a β3-agonist, […], was injected into desnutrin-ASKO and flox/flox mice and oxygen consumption was monitored.
FIGS. 2A-G. Decreased lipolysis in desnutrin-ASKO mice results in impaired thermogenesis and energy expenditure. […] F) Oxygen consumption rate (VO2) measured through indirect calorimetry. G) Oxygen consumption rate (VO2) measured through indirect calorimetry after intraperitoneal injection of CL316243. […]

[3] = molecular target: wild type desnutrin-HA-GFP (murine) (UniProt Q8BJ56); assay: cell-based or functional assay
Chain of wild type desnutrin-HA-GFP (murine) (Q8BJ56 whole entry): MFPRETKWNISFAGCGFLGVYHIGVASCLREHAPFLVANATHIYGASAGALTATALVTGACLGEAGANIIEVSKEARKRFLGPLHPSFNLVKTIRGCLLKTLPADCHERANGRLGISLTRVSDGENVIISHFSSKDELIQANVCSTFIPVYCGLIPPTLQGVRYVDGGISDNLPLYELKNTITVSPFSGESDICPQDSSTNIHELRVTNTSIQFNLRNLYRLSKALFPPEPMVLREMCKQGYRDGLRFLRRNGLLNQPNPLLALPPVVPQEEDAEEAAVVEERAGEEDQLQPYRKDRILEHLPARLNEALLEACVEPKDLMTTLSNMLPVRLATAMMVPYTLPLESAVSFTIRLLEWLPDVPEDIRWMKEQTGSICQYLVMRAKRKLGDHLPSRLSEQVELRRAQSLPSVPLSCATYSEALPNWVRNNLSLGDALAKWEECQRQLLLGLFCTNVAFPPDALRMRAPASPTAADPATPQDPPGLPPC

T1 sequence (P25962 whole entry): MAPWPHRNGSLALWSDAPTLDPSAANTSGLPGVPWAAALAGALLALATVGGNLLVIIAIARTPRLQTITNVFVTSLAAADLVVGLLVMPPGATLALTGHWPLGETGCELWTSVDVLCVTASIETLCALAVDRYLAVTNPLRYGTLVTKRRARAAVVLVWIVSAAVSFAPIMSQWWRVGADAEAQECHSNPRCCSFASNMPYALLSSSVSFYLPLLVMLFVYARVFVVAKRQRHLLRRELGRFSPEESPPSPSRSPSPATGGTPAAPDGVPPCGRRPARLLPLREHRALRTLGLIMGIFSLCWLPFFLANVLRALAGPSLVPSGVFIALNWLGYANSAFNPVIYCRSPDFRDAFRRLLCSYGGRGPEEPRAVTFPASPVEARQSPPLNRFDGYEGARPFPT

Compound: NC(=O)c1ncn([C@@H]2O[C@H](CO)[C@@H](O)[C@H]2O)c1N [AICAR, 5-amino-4-imidazolecarboxamide riboside]
increase in glycerol release [1]: 1.8 fold | increase in glycerol release [2]: failed to do so | serum FA levels (AMPK; desnutrin-ASKO mice): serum FA levels were unchanged | serum FA levels (AMPK; flox/flox mice): increased serum FA levels

Compound: C[C@H](Cc1ccc2c(c1)OC(C(=O)O)(C(=O)O)O2)NC[C@H](O)c1cccc(Cl)c1 [CL31624]
oxygen consumption (β3 adrenergic receptors; desnutrin-ASKO mice): no change in oxygen consumption | metabolic rate as indicated by oxygen consumption (β3 adrenergic receptors; flox/flox mice): drastic increase in their metabolic rate

glycerol release from oleate loaded HEK 293 cells treated with AICAR [3]: 1.8 fold
Compound: AMPK of HEK 293 cells, activated by AICAR

Source: patent publication US20140147431A1, “Compositions and Methods for Modulating Desnutrin-Mediated Adipocyte Lipolysis” (The Regents of the University of California, priority 2010, published 2014)
